According to the supplement of paper PMC11451515:

Tested on: SEM cells
Test: cell viability relative to DMSO control; higher = less cytotoxic
Conditions: 48 h
Summary of the method: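 Leukemia cells (NOMO1 or SEM, 500 cells/well; P12-Ichikawa, 1000 cells/well) were seeded in 5 μl in 1536-well plates after at least four passages of adaptation to each medium. They received library compounds in DMSO by pin dosing, 11 threefold points from 47 μM to 0.79 nM. Luminescence with CellTiter-Glo One was read after 48 h at 37°C. Viability is stated per plate relative to DMSO wells, with cell-free wells as background.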

[1] = HPLM + 10% dialyzed FBS, 0.000781 µM
[2] = HPLM + 10% dialyzed FBS, 0.00234 µM
[3] = HPLM + 10% dialyzed FBS, 0.00702 µM
[4] = HPLM + 10% dialyzed FBS, 0.0211 µM
[5] = HPLM + 10% dialyzed FBS, 0.0632 µM
[6] = HPLM + 10% dialyzed FBS, 0.19 µM
[7] = HPLM + 10% dialyzed FBS, 0.569 µM
[8] = HPLM + 10% dialyzed FBS, 1.71 µM
[9] = HPLM + 10% dialyzed FBS, 5.12 µM
[10] = HPLM + 10% dialyzed FBS, 15.4 µM
[11] = HPLM + 10% dialyzed FBS, 46.1 µM
[12] = RPMI 5 mM glucose + 10% FBS, 0.000781 µM
[13] = RPMI 5 mM glucose + 10% FBS, 0.00234 µM
[14] = RPMI 5 mM glucose + 10% FBS, 0.00702 µM
[15] = RPMI 5 mM glucose + 10% FBS, 0.0211 µM
[16] = RPMI 5 mM glucose + 10% FBS, 0.0632 µM
[17] = RPMI 5 mM glucose + 10% FBS, 0.19 µM
[18] = RPMI 5 mM glucose + 10% FBS, 0.569 µM
[19] = RPMI 5 mM glucose + 10% FBS, 1.71 µM
[20] = RPMI 5 mM glucose + 10% FBS, 5.12 µM
[21] = RPMI 5 mM glucose + 10% FBS, 15.4 µM
[22] = RPMI 5 mM glucose + 10% FBS, 46.1 µM
[23] = RPMI 5 mM glucose + 10% dialyzed FBS, 0.000781 µM
[24] = RPMI 5 mM glucose + 10% dialyzed FBS, 0.00234 µM
[25] = RPMI 5 mM glucose + 10% dialyzed FBS, 0.00702 µM
[26] = RPMI 5 mM glucose + 10% dialyzed FBS, 0.0211 µM
[27] = RPMI 5 mM glucose + 10% dialyzed FBS, 0.0632 µM
[28] = RPMI 5 mM glucose + 10% dialyzed FBS, 0.19 µM
[29] = RPMI 5 mM glucose + 10% dialyzed FBS, 0.569 µM
[30] = RPMI 5 mM glucose + 10% dialyzed FBS, 1.71 µM
[31] = RPMI 5 mM glucose + 10% dialyzed FBS, 5.12 µM
[32] = RPMI 5 mM glucose + 10% dialyzed FBS, 15.4 µM
[33] = RPMI 5 mM glucose + 10% dialyzed FBS, 46.1 µM

## C[C@@H]1CN[C@H]2[C@@H](C)[C@@]\3(CC[C@H]\4[C@@H]5C/C=C6/C[C@@H](O)CC[C@]6(C)[C@H]5CC4=C3C)O[C@@H]2C1
[1]
  cell viability: 78.3%
[2]
  cell viability: 122%
[3]
  cell viability: 119%
[4]
  cell viability: 119%
[5]
  cell viability: 129%
[6]
  cell viability: 118%
[7]
  cell viability: 127%
[8]
  cell viability: 114%
[9]
  cell viability: 114%
[10]
  cell viability: 98.4%
[11]
  cell viability: 84.6%
[12]
  cell viability: 77.7%
[13]
  cell viability: 119%
[14]
  cell viability: 132%
[15]
  cell viability: 141%
[16]
  cell viability: 118%
[17]
  cell viability: 115%
[18]
  cell viability: 117%
[19]
  cell viability: 120%
[20]
  cell viability: 105%
[21]
  cell viability: 109%
[22]
  cell viability: 93.5%

## CC(C)C[C@H](NC(=O)[C@@H](NC(=O)c1cccc(-c2ccccc2)n1)[C@@H](C)O)B(O)O
[1]
  cell viability: 98.1%
[2]
  cell viability: 110%
[3]
  cell viability: 108%
[4]
  cell viability: 31.3%
[5]
  cell viability: 9.24%
[6]
  cell viability: 8.75%
[7]
  cell viability: 8.47%
[8]
  cell viability: 8.47%
[9]
  cell viability: 7.07%
[10]
  cell viability: 4.73%
[11]
  cell viability: 3.46%
[12]
  cell viability: 93%
[13]
  cell viability: 107%
[14]
  cell viability: 99%
[15]
  cell viability: 18.2%
[16]
  cell viability: 9.27%
[17]
  cell viability: 9.18%
[18]
  cell viability: 8.81%
[19]
  cell viability: 8.15%
[20]
  cell viability: 6.37%
[21]
  cell viability: 4.03%
[22]
  cell viability: 3.46%
[23]
  cell viability: 87.3%
[24]
  cell viability: 100%
[25]
  cell viability: 95.9%
[26]
  cell viability: 28.4%
[27]
  cell viability: 9.88%
[28]
  cell viability: 9.98%
[29]
  cell viability: 9.77%
[30]
  cell viability: 9.35%
[31]
  cell viability: 6.09%
[32]
  cell viability: 3.83%
[33]
  cell viability: 3.48%

## COc1cc2c(Oc3ccc(NC(=O)C4(C(=O)Nc5ccc(F)cc5)CC4)cc3F)ccnc2cc1OCCCN1CCOCC1
[1]
  cell viability: 45.9%
[2]
  cell viability: 38.6%
[3]
  cell viability: 35.5%
[4]
  cell viability: 35.9%
[5]
  cell viability: 33.8%
[6]
  cell viability: 31.9%
[7]
  cell viability: 32.3%
[8]
  cell viability: 16.1%
[9]
  cell viability: 19.9%
[10]
  cell viability: 17.1%
[11]
  cell viability: 3.11%
[12]
  cell viability: 59.2%
[13]
  cell viability: 45.2%
[14]
  cell viability: 42.3%
[15]
  cell viability: 43.6%
[16]
  cell viability: 37.4%
[17]
  cell viability: 33.6%
[18]
  cell viability: 42.5%
[19]
  cell viability: 13.5%
[20]
  cell viability: 10.9%
[21]
  cell viability: 7.49%
[22]
  cell viability: 3.41%
[23]
  cell viability: 41.9%
[24]
  cell viability: 28.5%
[25]
  cell viability: 34.8%
[26]
  cell viability: 28.2%
[27]
  cell viability: 23.9%
[28]
  cell viability: 25.3%
[29]
  cell viability: 25.7%
[30]
  cell viability: 9.12%
[31]
  cell viability: 11.7%
[32]
  cell viability: 8.88%
[33]
  cell viability: 2.51%

## N[S+](=O)([O-])c1cc(Cl)c(Cl)c([S+](N)(=O)[O-])c1
[1]
  cell viability: 108%
[2]
  cell viability: 95.8%
[3]
  cell viability: 108%
[4]
  cell viability: 109%
[5]
  cell viability: 101%
[6]
  cell viability: 90.5%
[7]
  cell viability: 106%
[8]
  cell viability: 104%
[9]
  cell viability: 111%
[10]
  cell viability: 39.1%
[11]
  cell viability: 88.9%
[12]
  cell viability: 85.2%
[13]
  cell viability: 97%
[14]
  cell viability: 111%
[15]
  cell viability: 97.7%
[16]
  cell viability: 119%
[17]
  cell viability: 112%
[18]
  cell viability: 116%
[19]
  cell viability: 98.2%
[20]
  cell viability: 116%
[21]
  cell viability: 35.5%
[22]
  cell viability: 84.6%
[23]
  cell viability: 102%
[24]
  cell viability: 86%
[25]
  cell viability: 98.8%
[26]
  cell viability: 101%
[27]
  cell viability: 106%
[28]
  cell viability: 97.9%
[29]
  cell viability: 99.5%
[30]
  cell viability: 105%
[31]
  cell viability: 107%
[32]
  cell viability: 35.6%
[33]
  cell viability: 87.1%

## CCOC(=O)N1CCN(/[N+]([O-])=N/Oc2ccc([N+](=O)[O-])cc2[N+](=O)[O-])CC1
[1]
  cell viability: 64.4%
[2]
  cell viability: 70.7%
[3]
  cell viability: 60.1%
[4]
  cell viability: 77.6%
[5]
  cell viability: 76%
[6]
  cell viability: 94.4%
[7]
  cell viability: 85.7%
[8]
  cell viability: 73.8%
[9]
  cell viability: 42.5%
[10]
  cell viability: 22.4%
[11]
  cell viability: 14%
[12]
  cell viability: 70.6%
[13]
  cell viability: 84.9%
[14]
  cell viability: 56.8%
[15]
  cell viability: 91.9%
[16]
  cell viability: 93.9%
[17]
  cell viability: 94.9%
[18]
  cell viability: 88.8%
[19]
  cell viability: 81.5%
[20]
  cell viability: 40.7%
[21]
  cell viability: 13.2%
[22]
  cell viability: 8.13%
[23]
  cell viability: 77.3%
[24]
  cell viability: 91.6%
[25]
  cell viability: 72.5%
[26]
  cell viability: 88.2%
[27]
  cell viability: 89%
[28]
  cell viability: 86.2%
[29]
  cell viability: 102%
[30]
  cell viability: 78.2%
[31]
  cell viability: 43.6%
[32]
  cell viability: 16.7%
[33]
  cell viability: 8.98%

## COc1cc(C(C)=O)ccc1OCCCN1CCC(c2noc3cc(F)ccc23)CC1
[1]
  cell viability: 110%
[2]
  cell viability: 112%
[3]
  cell viability: 118%
[4]
  cell viability: 95%
[5]
  cell viability: 99.3%
[6]
  cell viability: 124%
[7]
  cell viability: 123%
[8]
  cell viability: 123%
[9]
  cell viability: 122%
[10]
  cell viability: 128%
[11]
  cell viability: 88.7%
[23]
  cell viability: 113%
[24]
  cell viability: 121%
[25]
  cell viability: 137%
[26]
  cell viability: 135%
[27]
  cell viability: 115%
[28]
  cell viability: 142%
[29]
  cell viability: 160%
[30]
  cell viability: 135%
[31]
  cell viability: 158%
[32]
  cell viability: 138%
[33]
  cell viability: 106%

## CC(=O)O[C@@]1(CC[C@H]2[C@@H]3\C=C(C)/C4=C/C(=O)CC[C@]4(C)[C@H]3CC[C@]12C)C(C)=O
[1]
  cell viability: 79.1%
[2]
  cell viability: 80%
[3]
  cell viability: 82%
[4]
  cell viability: 82.7%
[5]
  cell viability: 105%
[6]
  cell viability: 99.4%
[7]
  cell viability: 95.8%
[8]
  cell viability: 99.2%
[9]
  cell viability: 108%
[10]
  cell viability: 98.4%
[11]
  cell viability: 104%
[12]
  cell viability: 89.3%
[13]
  cell viability: 83.8%
[14]
  cell viability: 86.7%
[15]
  cell viability: 97.6%
[16]
  cell viability: 93.5%
[17]
  cell viability: 101%
[18]
  cell viability: 100%
[19]
  cell viability: 104%
[20]
  cell viability: 95%
[21]
  cell viability: 106%
[22]
  cell viability: 99.7%
[23]
  cell viability: 96.5%
[24]
  cell viability: 96.7%
[25]
  cell viability: 104%
[26]
  cell viability: 109%
[27]
  cell viability: 101%
[28]
  cell viability: 100%
[29]
  cell viability: 107%
[30]
  cell viability: 115%
[31]
  cell viability: 96.2%
[32]
  cell viability: 108%
[33]
  cell viability: 81.7%

## CC(=O)OCC(=O)[C@@]12\N=C(C)/O[C@@H]1C[C@H]3[C@@H]4CCC/5=C/C(=O)/C=C\[C@]5(C)[C@H]4[C@@H](O)C[C@]23C
[1]
  cell viability: 75.3%
[2]
  cell viability: 85.5%
[3]
  cell viability: 87.8%
[4]
  cell viability: 85.1%
[5]
  cell viability: 68%
[6]
  cell viability: 97%
[7]
  cell viability: 97.8%
[8]
  cell viability: 100%
[9]
  cell viability: 92.5%
[10]
  cell viability: 90.1%
[11]
  cell viability: 24.9%
[12]
  cell viability: 86.6%
[13]
  cell viability: 103%
[14]
  cell viability: 91.5%
[15]
  cell viability: 102%
[16]
  cell viability: 66.3%
[17]
  cell viability: 109%
[18]
  cell viability: 97.9%
[19]
  cell viability: 113%
[20]
  cell viability: 86.9%
[21]
  cell viability: 86.6%
[22]
  cell viability: 18.2%
[23]
  cell viability: 101%
[24]
  cell viability: 95.2%
[25]
  cell viability: 107%
[26]
  cell viability: 106%
[27]
  cell viability: 80.7%
[28]
  cell viability: 104%
[29]
  cell viability: 105%
[30]
  cell viability: 115%
[31]
  cell viability: 86.8%
[32]
  cell viability: 79.8%
[33]
  cell viability: 19.4%
